Laboratory results reported in ChEMBL document CHEMBL1201862, “PubChem BioAssay data set” (2004).
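Values below derive from 48-hour exposures of cells grown in 96-well plates, with endpoints linearly interpolated between the two concentrations bracketing the appropriate inhibition level. Abbreviation: GI50, concentration required for 50% inhibition of growth.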 Activity calls are given as the source filed them. No stated cut-off is given here; in the data, active = GI50 up to about 1.1 µM and inactive = higher.

Key:
Test in all cases: NCI tumour cell line growth inhibition, 48 h
[1] = test system: NCI-H226
[2] = test system: SW-620
[3] = test system: SNB-75
[4] = test system: HOP-92
[5] = test system: SF-268
[6] = test system: SK-MEL-2
[7] = test system: NCI-H23
[8] = test system: U-251
[9] = test system: SK-MEL-5
[10] = test system: K562
[11] = test system: SK-MEL-28
[12] = test system: SF-539
[13] = test system: UACC-62
[14] = test system: OVCAR-4
[15] = test system: MOLT-4
[16] = test system: SN12C
[17] = test system: M19-MEL
[18] = test system: LOX IMVI
[19] = test system: RXF 393
[20] = test system: HCC 2998

| SMILES | GI50 [1] | GI50 [2] | GI50 [3] | GI50 [4] | GI50 [5] | GI50 [6] | GI50 [7] | GI50 [8] | GI50 [9] | GI50 [10] | GI50 [11] | GI50 [12] | GI50 [13] | GI50 [14] | GI50 [15] | GI50 [16] | GI50 [17] | GI50 [18] | GI50 [19] | GI50 [20] |
| --- | --- | --- | --- | --- | --- | --- | --- | --- | --- | --- | --- | --- | --- | --- | --- | --- | --- | --- | --- | --- |
| O=C1CCC[C@H]2O[C@@H](COC(=O)c3ccccc3)C[C@H]2O1 | > 100 µM (inactive) | > 100 µM (inactive) | > 100 µM (inactive) | > 100 µM (inactive) | > 100 µM (inactive) | > 100 µM (inactive) | > 100 µM (inactive) | > 100 µM (inactive) | > 100 µM (inactive) | > 100 µM (inactive) | > 100 µM (inactive) | > 100 µM (inactive) | > 100 µM (inactive) | > 100 µM (inactive) | > 100 µM (inactive) | > 100 µM (inactive) | – | – | – | – |
| CN(C)C(=O)N(CCCl)N=O | > 10 µM (inactive) | > 100 µM (inactive) | > 63.7 µM (inactive) | > 100 µM (inactive) | > 100 µM (inactive) | > 100 µM (inactive) | > 100 µM (inactive) | > 100 µM (inactive) | > 100 µM (inactive) | > 100 µM (inactive) | > 100 µM (inactive) | > 100 µM (inactive) | > 100 µM (inactive) | > 100 µM (inactive) | > 100 µM (inactive) | > 100 µM (inactive) | > 100 µM (inactive) | > 100 µM (inactive) | > 100 µM (inactive) | > 100 µM (inactive) |
| CC(C)OP(=O)(OC(C)C)C1=NN(c2ccc([N+](=O)[O-])cc2)C(P(=O)(OC(C)C)OC(C)C)=NN1c1ccc([N+](=O)[O-])cc1 | > 100 µM (inactive) | > 100 µM (inactive) | – | 7.62 µM (inactive) | > 100 µM (inactive) | > 100 µM (inactive) | > 100 µM (inactive) | 42.7 µM (inactive) | 24.5 µM (inactive) | 6.95 µM (inactive) | > 100 µM (inactive) | 31 µM (inactive) | > 100 µM (inactive) | > 100 µM (inactive) | 5.19 µM (inactive) | 44.7 µM (inactive) | > 100 µM (inactive) | > 100 µM (inactive) | > 100 µM (inactive) | 47.2 µM (inactive) |
| C1=C(c2ccccc2)SC(N2CCCCC2)S1 (stereo not given) | > 100 µM (inactive) | > 100 µM (inactive) | 55.6 µM (inactive) | > 100 µM (inactive) | > 100 µM (inactive) | > 100 µM (inactive) | > 100 µM (inactive) | > 100 µM (inactive) | – | 52.2 µM (inactive) | – | > 100 µM (inactive) | > 100 µM (inactive) | > 100 µM (inactive) | 81.5 µM (inactive) | > 100 µM (inactive) | 68.1 µM (inactive) | 72.9 µM (inactive) | > 100 µM (inactive) | – |
| Cc1ccc(S(=O)(=O)Oc2cc(-c3ccccc3)nc3ccccc23)cc1 | 6.4 µM (inactive) | 1.22 µM (inactive) | 1.92 µM (inactive) | 3.83 µM (inactive) | 8.77 µM (inactive) | 1.98 µM (inactive) | 2.53 µM (inactive) | 2.51 µM (inactive) | 1.42 µM (inactive) | 0.869 µM (active) | 11.3 µM (inactive) | 2.08 µM (inactive) | 3.01 µM (inactive) | 7.33 µM (inactive) | 3.63 µM (inactive) | 5.93 µM (inactive) | 3.3 µM (inactive) | 8.97 µM (inactive) | 2.95 µM (inactive) | 1 µM (active) |
| O=C(NCCN(CCNC(=O)c1cccc(=O)n1O)CCNC(=O)c1cccc(=O)n1O)c1cccc(=O)n1O | > 100 µM (inactive) | > 100 µM (inactive) | > 100 µM (inactive) | > 100 µM (inactive) | > 100 µM (inactive) | > 100 µM (inactive) | > 100 µM (inactive) | > 100 µM (inactive) | > 100 µM (inactive) | > 100 µM (inactive) | > 100 µM (inactive) | > 100 µM (inactive) | > 100 µM (inactive) | > 100 µM (inactive) | – | > 100 µM (inactive) | – | – | > 100 µM (inactive) | > 100 µM (inactive) |
| COc1ccc(/C(Cl)=C(\C=O)c2ccc(Cl)cc2)cc1 | 6.35 µM (inactive) | 4.12 µM (inactive) | 4.27 µM (inactive) | – | 6.11 µM (inactive) | 3.82 µM (inactive) | 3.56 µM (inactive) | 3.79 µM (inactive) | 11.2 µM (inactive) | 3.81 µM (inactive) | – | 9.16 µM (inactive) | 10.1 µM (inactive) | 8.61 µM (inactive) | 2.63 µM (inactive) | 3.08 µM (inactive) | 9.77 µM (inactive) | 3.45 µM (inactive) | 10.7 µM (inactive) | 23.2 µM (inactive) |
| Cc1cn([C@@H]2C[C@H](CO)[C@@H](O)C2)c(=O)[nH]c1=O | > 100 µM (inactive) | > 100 µM (inactive) | 78.9 µM (inactive) | > 100 µM (inactive) | > 100 µM (inactive) | > 100 µM (inactive) | > 100 µM (inactive) | > 100 µM (inactive) | – | > 100 µM (inactive) | > 100 µM (inactive) | > 100 µM (inactive) | > 100 µM (inactive) | > 100 µM (inactive) | > 100 µM (inactive) | > 100 µM (inactive) | > 100 µM (inactive) | > 100 µM (inactive) | – | > 100 µM (inactive) |
